Assay results reported in PMC11157767 (Molecular Cancer, 2024).

Test system: TFG-MET allograft tumors
Assay: RNA-sequencing, differential expression and GSEA of TFG-MET allograft tumors
Assay type: in vivo, mouse
Details: CAP v Veh
Description: Error bars display standard error of mean, statistical significance was determined using t-test analysis. (****;p<0.0001, ***;p<0.001, **;p<0.01, *;p<0.05). […] Each dot represents an individual replicate. Error bars display standard error of the mean.
Each dot represents one gene.

CNC(=O)c1ccc(-c2cnc3ncc(Cc4ccc5ncccc5c4)n3n2)cc1F [Capmatinib]
ES (GOMF_3_5_DNA_HELICASE_ACTIVITY): -0.6834 | NES (GOMF_3_5_DNA_HELICASE_ACTIVITY, padj 0.00671103): -1.906 | ES (GOMF_ACTIVATING_TRANSCRIPTION_FACTOR_BINDING): -0.4071 | NES (GOMF_ACTIVATING_TRANSCRIPTION_FACTOR_BINDING, padj 0.0419799): -1.5828 | ES (GOMF_ALPHA_ACTININ_BINDING): -0.5133 | NES (GOMF_ALPHA_ACTININ_BINDING, padj 0.0520078): -1.603 | ES (GOMF_AMYLOID_BETA_BINDING): 0.3131 | NES (GOMF_AMYLOID_BETA_BINDING, padj 0.0419799): 1.527 | ES (GOMF_ANTIOXIDANT_ACTIVITY): 0.3898 | NES (GOMF_ANTIOXIDANT_ACTIVITY, padj 0.0072907): 1.809 | ES (GOMF_ATPASE_COUPLED_ION_TRANSMEMBRANE_TRANSPORTER_ACTIVITY): 0.474 | NES (GOMF_ATPASE_COUPLED_ION_TRANSMEMBRANE_TRANSPORTER_ACTIVITY, padj 0.00463): 2.003 | ES (GOMF_BETA_2_MICROGLOBULIN_BINDING): 0.5632 | NES (GOMF_BETA_2_MICROGLOBULIN_BINDING, padj 0.0448774): 1.801 | ES (GOMF_CALCIUM_DEPENDENT_PROTEIN_BINDING): 0.337 | NES (GOMF_CALCIUM_DEPENDENT_PROTEIN_BINDING, padj 0.0607303): 1.56 | ES (GOMF_CARBOHYDRATE_BINDING): 0.2512 | NES (GOMF_CARBOHYDRATE_BINDING, padj 0.0202682): 1.428 | ES (GOMF_CARBOXYLIC_ESTER_HYDROLASE_ACTIVITY): 0.3196 | NES (GOMF_CARBOXYLIC_ESTER_HYDROLASE_ACTIVITY, padj 0.00853155): 1.6126 | ES (GOMF_CATALYTIC_ACTIVITY_ACTING_ON_A_TRNA): -0.5808 | NES (GOMF_CATALYTIC_ACTIVITY_ACTING_ON_A_TRNA, padj 7.15005e-11): -2.431 | ES (GOMF_CATALYTIC_ACTIVITY_ACTING_ON_DNA): -0.5359 | NES (GOMF_CATALYTIC_ACTIVITY_ACTING_ON_DNA, padj 5.51748e-13): -2.374 | ES (GOMF_CATION_CATION_ANTIPORTER_ACTIVITY): 0.4863 | NES (GOMF_CATION_CATION_ANTIPORTER_ACTIVITY, padj 0.0546567): 1.7655 | ES (GOMF_CATION_TRANSMEMBRANE_TRANSPORTER_ACTIVITY): 0.1933 | NES (GOMF_CATION_TRANSMEMBRANE_TRANSPORTER_ACTIVITY, padj 0.0600708): 1.207 | ES (GOMF_COA_HYDROLASE_ACTIVITY): 0.52 | NES (GOMF_COA_HYDROLASE_ACTIVITY, padj 0.0696276): 1.759 | ES (GOMF_CORE_PROMOTER_SEQUENCE_SPECIFIC_DNA_BINDING): -0.4562 | NES (GOMF_CORE_PROMOTER_SEQUENCE_SPECIFIC_DNA_BINDING, padj 0.072132): -1.575 | ES (GOMF_CYTOKINE_BINDING): 0.2766 | NES (GOMF_CYTOKINE_BINDING, padj 0.0484841): 1.402 | ES (GOMF_CYTOKINE_RECEPTOR_ACTIVITY): 0.3569 | NES (GOMF_CYTOKINE_RECEPTOR_ACTIVITY, padj 0.00978552): 1.74 | ES (GOMF_DELAYED_RECTIFIER_POTASSIUM_CHANNEL_ACTIVITY): 0.4424 | NES (GOMF_DELAYED_RECTIFIER_POTASSIUM_CHANNEL_ACTIVITY, padj 0.0600708): 1.691 | ES (GOMF_DEMETHYLASE_ACTIVITY): -0.5386 | NES (GOMF_DEMETHYLASE_ACTIVITY, padj 0.0072907): -1.838 | ES (GOMF_DNA_BINDING_TRANSCRIPTION_ACTIVATOR_ACTIVITY): -0.3206 | NES (GOMF_DNA_BINDING_TRANSCRIPTION_ACTIVATOR_ACTIVITY, padj 0.00368803): -1.494 | ES (GOMF_DNA_BINDING_TRANSCRIPTION_REPRESSOR_ACTIVITY): -0.3134 | NES (GOMF_DNA_BINDING_TRANSCRIPTION_REPRESSOR_ACTIVITY, padj 0.0381242): -1.423 | ES (GOMF_DNA_HELICASE_ACTIVITY): -0.6746 | NES (GOMF_DNA_HELICASE_ACTIVITY, padj 6.80206e-12): -2.633 | ES (GOMF_DNA_POLYMERASE_ACTIVITY): -0.499 | NES (GOMF_DNA_POLYMERASE_ACTIVITY, padj 0.057276): -1.624 | ES (GOMF_DNA_POLYMERASE_BINDING): -0.6079 | NES (GOMF_DNA_POLYMERASE_BINDING, padj 0.0319688): -1.763 | ES (GOMF_DOUBLE_STRANDED_RNA_BINDING): -0.4239 | NES (GOMF_DOUBLE_STRANDED_RNA_BINDING, padj 0.0120781): -1.66 | ES (GOMF_ENDONUCLEASE_ACTIVITY): -0.4125 | NES (GOMF_ENDONUCLEASE_ACTIVITY, padj 0.00509455): -1.716 | ES (GOMF_ENDONUCLEASE_ACTIVITY_ACTIVE_WITH_EITHER_RIBO_OR_DEOXYRIBONUCLEIC_ACIDS_AND_PRODUCING_5_PHOSPHOMONOESTERS): -0.5195 | NES (GOMF_ENDONUCLEASE_ACTIVITY_ACTIVE_WITH_EITHER_RIBO_OR_DEOXYRIBONUCLEIC_ACIDS_AND_PRODUCING_5_PHOSPHOMONOESTERS, padj 0.00950889): -1.794 | ES (GOMF_ENDOPEPTIDASE_REGULATOR_ACTIVITY): 0.2991 | NES (GOMF_ENDOPEPTIDASE_REGULATOR_ACTIVITY, padj 0.0132396): 1.521 | ES (GOMF_ENDORIBONUCLEASE_ACTIVITY): -0.4748 | NES (GOMF_ENDORIBONUCLEASE_ACTIVITY, padj 0.00565255): -1.786 | ES (GOMF_ENDORIBONUCLEASE_ACTIVITY_PRODUCING_5_PHOSPHOMONOESTERS): -0.5711 | NES (GOMF_ENDORIBONUCLEASE_ACTIVITY_PRODUCING_5_PHOSPHOMONOESTERS, padj 0.0162496): -1.81 | ES (GOMF_FATTY_ACID_BINDING): 0.4525 | NES (GOMF_FATTY_ACID_BINDING, padj 0.0492693): 1.741 | NES (GOMF_FOUR_WAY_JUNCTION_DNA_BINDING, padj 0.0177962): -1.783 | NES (GOMF_GLUTATHIONE_PEROXIDASE_ACTIVITY, padj 0.00790825): 2.092 | ES (GOMF_GLYCOLIPID_BINDING): 0.506 | NES (GOMF_GLYCOLIPID_BINDING, padj 0.0202682): 1.835 | ES (GOMF_GUANYL_NUCLEOTIDE_BINDING): -0.2896 | NES (GOMF_GUANYL_NUCLEOTIDE_BINDING, padj 0.0419799): -1.351 | ES (GOMF_HEAT_SHOCK_PROTEIN_BINDING): -0.3614 | NES (GOMF_HEAT_SHOCK_PROTEIN_BINDING, padj 0.0624118): -1.511 | ES (GOMF_HEME_COPPER_TERMINAL_OXIDASE_ACTIVITY): 0.566 | NES (GOMF_HEME_COPPER_TERMINAL_OXIDASE_ACTIVITY, padj 0.00343436): 2.052 | ES (GOMF_HISTONE_DEACETYLASE_BINDING): -0.365 | NES (GOMF_HISTONE_DEACETYLASE_BINDING, padj 0.0452435): -1.507 | ES (GOMF_HYDROLASE_ACTIVITY_ACTING_ON_ACID_ANHYDRIDES): -0.3454 | ES (GOMF_HYDROLASE_ACTIVITY_ACTING_ON_CARBON_NITROGEN_BUT_NOT_PEPTIDE_BONDS_IN_CYCLIC_AMIDINES): -0.5898 | NES (GOMF_HYDROLASE_ACTIVITY_ACTING_ON_CARBON_NITROGEN_BUT_NOT_PEPTIDE_BONDS_IN_CYCLIC_AMIDINES, padj 0.00629559): -1.842 | ES (GOMF_ION_TRANSMEMBRANE_TRANSPORTER_ACTIVITY): 0.1805 | NES (GOMF_ION_TRANSMEMBRANE_TRANSPORTER_ACTIVITY, padj 0.0667134): 1.183 | ES (GOMF_ISOMERASE_ACTIVITY): -0.3436 | NES (GOMF_ISOMERASE_ACTIVITY, padj 0.0410059): -1.472 | ES (GOMF_KINASE_BINDING): -0.2712 | NES (GOMF_KINASE_BINDING, padj 0.019253): -1.314 | ES (GOMF_KINASE_INHIBITOR_ACTIVITY): -0.4003 | ES (GOMF_KINASE_REGULATOR_ACTIVITY): -0.3132 | NES (GOMF_KINASE_REGULATOR_ACTIVITY, padj 0.0543588): -1.396 | ES (GOMF_LIGASE_ACTIVITY_FORMING_CARBON_NITROGEN_BONDS): -0.4994 | NES (GOMF_LIGASE_ACTIVITY_FORMING_CARBON_NITROGEN_BONDS, padj 0.0116225): -1.777 | ES (GOMF_LYSINE_ACETYLATED_HISTONE_BINDING): -0.5519 | NES (GOMF_LYSINE_ACETYLATED_HISTONE_BINDING, padj 0.0564834): -1.63 | ES (GOMF_LYSOPHOSPHOLIPASE_ACTIVITY): 0.4699 | NES (GOMF_LYSOPHOSPHOLIPASE_ACTIVITY, padj 0.0722653): 1.706 | ES (GOMF_MAGNESIUM_ION_BINDING): -0.3426 | NES (GOMF_MAGNESIUM_ION_BINDING, padj 0.0134631): -1.518 | NES (GOMF_MAP_KINASE_KINASE_KINASE_ACTIVITY, padj 0.0759934): -1.58 | ES (GOMF_METALLOENDOPEPTIDASE_ACTIVITY): -0.4444 | NES (GOMF_METALLOENDOPEPTIDASE_ACTIVITY, padj 0.00334688): -1.785 | ES (GOMF_METALLOPEPTIDASE_ACTIVITY): -0.3671 | NES (GOMF_METALLOPEPTIDASE_ACTIVITY, padj 0.0120781): -1.581 | ES (GOMF_METHYL_CPG_BINDING): -0.6439
